≈ marks a conversion by molar mass, not a printed value. Where two headings read alike, the source gives them in different places. Each block holds one compound with its values, some of them ahead of it.
Tests used:
Human blood stability = assay type: in vitro ADME
[1] = Rat hepatocyte metabolic stability; assay type: in vitro ADME; conditions: for half-life / hepatocyte CLint: rat hepatocytes; for half-life: read-out: rat hepatocytes T1/2; for hepatocyte CLint: read-out: rat hepatocytes h Clintr (μL/min/10^6 cells)
[2] = Human hepatocyte metabolic stability; assay type: in vitro ADME; conditions: for half-life / hepatocyte CLint: human hepatocytes; for half-life: read-out: human hepatocytes T1/2; for hepatocyte CLint: read-out: human hepatocytes h Clintr (μL/min/10^6 cells)
SJSA-1 = experiment: Cell proliferation (Alamar Blue) assay, SJSA-1; assay type: cell-based, human; conditions: Homo sapiens, SJSA-1, 24 h, Table B-3, head prints SJSB-1, 24 h, read-out: IC50 (μM) SJSB-1
Description: (§1) Cell viability assay was performed to assess the potency of the compounds in human cancer cell lines 786-0 (renal cell carcinoma) and SJSA-1 (osteosarcoma). Additional cell lines, such as pancreatic cancer cell lines (Panc 02.13, BxPC-3, Panc 12, Panc 02.03, Panc 6.03, PSN-1, HPAC, and Capan-1), prostate cancer cell lines (PC-3, DU145, 22Rv1, NCI-H660, BPH1, LNCaP, BM-1604, and MDA PCa 2b), etc., can be tested in a similar method.
(§2) Cells (SJSA-1, 786-0 and A431) were seeded (5000 cells/100 μL/well) in 96-well tissue culture plate and incubated at 37° C./5% CO2 for 16-24 hours. The cells were then treated with compounds (25 μL of 5×). The compound concentrations were 10-0.0005 μM prepared in 3-fold serial dilutions with final DMSO concentration of 1%. The plates were then incubated for 24 h at 37° C./5% CO2 in a moist environment. Then Alamar Blue™ reagent (final concentration 1×-12.5 μL) was added to each well and incubated for 1.5 hours at 37° C./5% CO2. The plates were read on fluorescence reader at 540 nm excitation and 590 nm emission wavelengths. The IC50 values were subsequently determined using a sigmoidal dose-response curve (variable slope) in GraphPad Prism® 5 software. Table A-3, Table B-3 and Table C-3 show cell proliferation data for certain compounds as described herein.

[3] = Kinetic solubility (PBS, pH 7.4); assay type: physicochemical; conditions: for solubility kinetic: aqueous buffer, kinetic from dmso stock, Table B-4
786-O = experiment: Cell proliferation (Alamar Blue) assay, 786-O; assay type: cell-based, human; conditions: Homo sapiens, 786-0, 24 h, Table B-3, 786-O cells
Description: as §1, §2

[4] = Equilibrium solubility at different pHs and with SBECD; assay type: physicochemical; conditions: thermodynamic from solid
A431 = experiment: Cell proliferation (Alamar Blue) assay, A431; assay type: cell-based, human; conditions: Homo sapiens, A-431, 24 h, Table B-3, A431 cells
Description: as §1, §2

[5] = CD-1 Mouse Whole Blood Stability Assay; assay type: in vitro ADME; conditions: Table B-6, incubation at 37° C.
[6] = Rat IV pharmacokinetics (2 mg/kg); assay type: in vivo; conditions: male, SD, plasma
Source text: Institutional Animal Ethical Committee (IAEC) of Jubilant Biosys (IAEC/JDC/2019/188R (for Mice) and IAEC/JDC/2019/189R (for Rat) nominated by CPCSEA (Committee for the Purpose of Control and Supervision of Experiments on Animals) approved the mice and rat pharmacokinetic experiments. Male Balb/c mice (˜6-8 weeks old with body weight range of 22-25 g) and male SD rats (6-8 weeks old with body weight range of 200-250 g) were procured from Vivo Biotech, Hyderabad, India. Animals were quarantined in Jubilant Biosys Animal House for a period of 7 days with a 12:12 h light: dark cycles, and prior to the study the animals were stratified as per body weight.
B) Procedure for rat: Intravenous and oral pharmacokinetics study was done at a dose 2 and 10 mg/kg at dose volume of 2 and 10 mL/Kg. Serial blood sampling was done and at each time point (˜200 μL) were collected from retro-orbital plexus at 0.083 (Only for IV), 0.25, 0.5, 1, 2, 4, 8, 10 (only for PO) and 24 h. Blood samples were collected in tubes containing K2.EDTA as anticoagulant and centrifuged for 5 min at 10,000 rpm in a refrigerated centrifuge (Biofuge, Heraeus, Germany) maintained at 4° C. for plasma separation.
Group I (IV) received test compound intravenously by tail vein at 2 mg/Kg in solution formulation prepared using 30% Kolliphore EL in WFI; dose volume: 2 mL/Kg; strength: 1 mg/mL.
Blood concentration-time data of test compound was analyzed by non-compartmental method using Phoenix WinNonlin Version 8.1.

[7] = aqueous with cosolvent or surfactant or cyclodextrin, 20% SBECD (sulfobutyl ether cyclodextrin), read-out: Eq. solubility 20% SBECD

human blood stability % remaining (Human blood stability; 15 min): 36%_15
human blood stability % remaining (Human blood stability; 30 min): 41%_30
human blood stability % remaining (Human blood stability; 45 min): 11%_45
human blood stability % remaining (Human blood stability; 60 min): 9%_60
human blood stability % remaining (Human blood stability; 120 min): 0%_120
rat hepatocytes extr. Ratio [1]: 0.9
human hepatocytes extr. Ratio [2]: 0.82
IC50 (SJSA-1): 0.002 µM
solubility kinetic [3]: 1 µM (≈ 0.455 µg/mL)
IC50 (786-O): 0.002 µM
Compound: C#CC(=O)N1[C@@H](CCCC)Cc2c([nH]c3ccccc23)[C@@H]1c1ccc(C(=O)NC2CCC2)nc1 [Compound B-5, 5-((1S,3S)-3-butyl-2-propioloyl-2,3,4,9-tetrahydro-1H-pyrido[3,4-b]indol-1-yl)-N-cyclobutylpicolinamide]

solubility ([4]; aqueous buffer, pH 3.0 PBS buffer, read-out: Eq. solubility pH 3.0 PBS buffer): < 1 µg/mL
solubility [4, 7]: > 1090 µg/mL
IC50 (SJSA-1): 0.257 µM
IC50 (A431): > 10 µM
IC50 (786-O): 0.121 µM
Compound: C#CC(=O)N1[C@@H](CCCC)Cc2c([nH]c3c(F)cc(F)cc23)[C@@H]1c1cnn(C)c1 [Compound B-33]

CD-1 Mouse Whole Blood Stability % Remaining ([5]; 0 min): 100%
CD-1 Mouse Whole Blood Stability % Remaining ([5]; 30 min): 0%
CD-1 Mouse Whole Blood Stability % Remaining ([5]; 60 min): 0%
IC50 (SJSA-1): 0.01 µM
IC50 (A431): 1.1 µM
IC50 (786-O): 0.07 µM
Compound: C#CC(=O)N1[C@@H](CCCC)Cc2c([nH]c3c(F)cc(F)cc23)[C@@H]1c1ccc(C#N)nc1 [Compound B-51]

rat hepatocytes extr. Ratio [1]: 0.64
rat hepatocytes % met @ 180 min [1]: 74%
half-life [1]: 2.28 h
hepatocyte CLint [1]: 20 µL/min/1e6 cells
human hepatocytes extr. Ratio [2]: 0.58
human hepatocytes % met @ 180 min [2]: 38%
half-life [2]: 4.5 h
hepatocyte CLint [2]: 10 µL/min/1e6 cells
IC50 (SJSA-1): 0.004 µM
solubility kinetic [3]: < 1 µM
IC50 (A431): 4.6 µM
AUC(0-t) ([6]; read-out: Rat IV-PK AUC (0-t)): 346 ng·h/mL
clearance ([6]; read-out: Rat IV-PK CL): 115 mL/min/kg
half-life ([6]; read-out: Rat IV-PK T1/2): 3.3 h
Vd ([6]; read-out: Rat IV-PK Vd): 32 L/kg
IC50 (786-O): 0.001 µM
Compound: C#CC(=O)N1[C@@H](CC2CC2)Cc2c([nH]c3ccccc23)[C@@H]1c1ccc(NC23CC4CC(CC(C4)C2)C3)cc1 [Compound B-37]

IC50 (SJSA-1): 0.706 µM
IC50 (A431): > 10 µM
IC50 (786-O): 0.31 µM
Compound: C#CC(=O)N1[C@@H](CCCC)Cc2c([nH]c3c(F)cc(F)cc23)[C@@H]1c1ccc(N2CCC2)c(C#N)c1 [Compound B-60]

IC50 (SJSA-1): 0.247 µM
IC50 (A431): > 10 µM
IC50 (786-O): 0.168 µM
Compound: C#CC(=O)N1[C@@H](CCCC)Cc2c([nH]c3c(F)cc(F)cc23)[C@@H]1C1CCC(=O)CC1 [Compound B-76]

IC50 (SJSA-1): 0.015 µM
IC50 (A431): 5.9 µM
IC50 (786-O): 0.008 µM
Compound: C#CC(=O)N1[C@@H](CCCC)Cc2c([nH]c3ccccc23)[C@@H]1c1ccc(NC2CCC2)cc1 [Compound B-4, 1-((1S,3S)-3-butyl-1-(4-(cyclobutylamino)phenyl)-1,3,4,9-tetrahydro-2H-pyrido[3,4-b]indol-2-yl)prop-2-yn-1-one]

human blood stability % remaining (Human blood stability; 15 min): 107%_15
human blood stability % remaining (Human blood stability; 30 min): 31%_30
human blood stability % remaining (Human blood stability; 45 min): 15%_45
human blood stability % remaining (Human blood stability; 60 min): 8.4%_60
human blood stability % remaining (Human blood stability; 120 min): 0%_120
solubility [4, 7]: 10 µg/mL (≈ 20.9 µM)
rat hepatocytes extr. Ratio [1]: 0.78
rat hepatocytes % met @ 180 min [1]: 94%
half-life [1]: 1.13 h
hepatocyte CLint [1]: 41 µL/min/1e6 cells
human hepatocytes extr. Ratio [2]: 0.8
human hepatocytes % met @ 180 min [2]: 73%
half-life [2]: 1.63 h
hepatocyte CLint [2]: 28 µL/min/1e6 cells
IC50 (SJSA-1): 0.019 µM
Kinetic solubility (PBS, pH 7.4, μM) ([3]; Table B-7): <1 μM
solubility kinetic [3]: < 1 µM
IC50 (A431): 6.6 µM
IC50 (786-O): 0.01 µM
Compound: C#CC(=O)N1[C@@H](CCCC)Cc2c([nH]c3c(F)cc(F)cc23)[C@@H]1c1ccc(NC(=O)OCC)cc1 [Compound B-35]

Source: patent US20220227765A1, “PYRIDO-INDOLE ANALOGUES AS GPX4 INHIBITORS” (Ferro Therapeutics, Inc., priority 2019, published 2022)
